Values quoted from earlier work in US20060127459A1, “Urogenital infection inhibition” (priority 2004, published 2006).

Test system: pathogen adherence to epithelium cells
Conditions: positive control, shown in U.S. patent application Ser. No. 10/401,522

Hyaluronic acid (HLA) potassium salt
pathogen adherence to epithelium cells: inhibit pathogen adherence
